In US20230255987A1, “AQUEOUS PHARMACEUTICAL COMPOSITION COMPRISING A P2Y12 RECEPTOR ANTAGONIST” (Idorsia Pharmaceuticals Ltd, priority 2020, published 2023):

How the values were obtained:
[1] = Stability of COMPOUND in aqueous solution at pH 9.0 with boric acid buffer at different buffer concentrations, 75° C.; format: physicochemical
Procedure: (§1) Sample Preparation for High Performance Liquid Chromatography and Method Used • 20 μL of the respective aqueous pharmaceutical composition was filled into a HPLC vial. • 980 μL water was added (dilution factor 50) prior HPLC analysis. • HPLC-UV method used: • HPLC system: High pressure mixing Shimadzu Nexera X2 • Flow: 1.5 mL/min • Column temperature: 50° C. • Autosampler temperature: 25° C. • Injection volume: 1 μL • Column: Phenomenex Gemini 5.0 μm 110 Å, 50×2.0 mm (n° 184) • Wavelength: DAD+250 nm • Solvent A: tris(hydroxymethyl)aminomethane buffer 50 mM pH 9 (adjusted with HCl)+5% (v/v) acetonitrile • Solvent B: Acetonitrile+5% (v/v) tris(hydroxymethyl)aminomethane buffer 50 mM pH 9 (adjusted with HCl) • Gradient: […]
Stability of COMPOUND in aqueous solution at pH 9.0 in the presence of boric acid buffer at different buffer concentrations
Formulation compositions assessing the impact of buffer capacity on formulation stability

[2] = Long-term stability of COMPOUND in 60 mM arginine buffer under different storage conditions (UPLC); format: physicochemical
Procedure: In a 10 L glass reactor, L-arginine (104 g, 0.60 mol) was added under stirring to water for injection (7.01 kg). COMPOUND hydrochloride (339 g, 0.52 mol) was added portion wise to the solution and the pH value was adjusted to pH=9.0 by addition of 1.0 M aqueous NaOH solution (1.18 kg). Water for injection was added to a total weight of the solution of 10.15 kg.
For stability testing the test samples were prepared by filling 0.54 mL of the above solution into prefillable 1 mL glass syringes with stacked in needle and stored under the conditions given in table 14 and 15. The samples were analysed after the given timepoints by ultra-performance liquid chromatography (UPLC) using the following conditions: • Equipment: • UPLC system, with data acquisition system and UV detection
Mobile phase A: Weigh 3.08 g of ammonium acetate and 3.26 g of ammonium hexafluorophosphate in a 2 L bottle. Dissolve in 1900 mL H2O. Add 100 mL of acetonitrile.
Mobile phase B: Weigh 0.77 g of ammonium acetate in a 1 L bottle. Dissolve in 50 mL H2O. Add 950 mL of acetonitrile.
Diluent: Mix 920 mL of Mobile Phase A with 80 mL Mobile phase B.
Reference standard solution: 0.32 mg/mL of COMPOUND reference standard in diluent.
Sample solution: The samples were diluted to 0.32 mg/mL of COMPOUND (based on amount of COMPOUND in the initial solution) with diluent
Column: 100 mm×3.0 mm, 3 μm C18 column (e.g. YMC Triart C18 ExRS)
Detection wavelength: 246 nm

[3] = Stability of COMPOUND in aqueous solution at different pH values in the absence of a buffer (HPLC); format: physicochemical
Procedure: For instance, a solution of COMPOUND (32 mg/mL) in water at pH 7 (adjusted with aqueous NaOH solution) contained only 33.5% COMPOUND, but 65.2% (R)-2-(6-((S)-3-methoxypyrrolidin-1-yl)-2-phenylpyrimidine-4-carboxamido)-3-phosphonopropanoic acid (hereinafter DEGRADATION COMPOUND) if stored at 60° C. for 1 week (98.6% COMPOUND at t=0, i.e. immediately after preparation of the solution). The amount of DEGRADATION COMPOUND dropped to 24.4% and 10.0% for corresponding aqueous solutions stored under the same conditions but adjusted to pH 8.0 and 9.0, respectively.
as §1
Aqueous formulations containing 32 mg/mL (52 mM) COMPOUND were titrated to pH 7.0, 8.0, and 9.0 using aqueous 1N NaOH solution.
The different formulations were filled into 1 mL sterile, pre-fillable glass syringes after sterile filtration. Samples were analyzed at t=0 and after 1-week storage at 60° C.

[4] = rat, at equivalent antithrombotic efficacy, versus ticagrelor; cited from earlier work
[5] = pH shift of unbuffered, pH-adjusted aqueous solution of COMPOUND on storage; format: physicochemical; conditions: initial pH 9.0, 2 days at 70° C.
[6] = system: platelet; conditions: patients with AMI, cited from earlier work
[7] = system: platelet aggregation; conditions: 15 minutes after subcutaneous administration, doses of 8 mg, 16 mg and 32 mg; cited from earlier work

For `CCCCOC(=O)N1CCN(C(=O)[C@H](CP(=O)(O)O)NC(=O)c2cc(N3CC[C@H](OC)C3)nc(-c3ccccc3)n2)CC1` [COMPOUND, 4-((R)-2-{[6-((S)-3-methoxy-pyrrolidin-1-yl)-2-phenyl-pyrimidine-4-carbonyl]-amino}-3-phosphono-propionyl)-piperazine-1-carboxylic acid butyl ester], the “Content of COMPOUND” value ([1]; 0 mM B(OH)3, pH 9.0, 75° C., 0 h) was 100.00 Area %, the “Content of COMPOUND” value ([1]; 0 mM B(OH)3, pH 9.0, 75° C., 24 h) was 96.16 Area % and the “Content of COMPOUND” value ([1]; 0 mM B(OH)3, pH 9.0, 75° C., 48 h) was 89.46 Area %. For the same compound, the “Content of COMPOUND” value ([1]; 0 mM B(OH)3, pH 9.0, 75° C., 120 h) was 64.89 Area %, the “Content of COMPOUND” value ([1]; 0 mM B(OH)3, pH 9.0, 75° C., 168 h) was 49.45 Area % and the “Content of COMPOUND” value ([1]; 20 mM B(OH)3, pH 9.0, 75° C., 0 h) was 100.00 Area %. For the same compound, the “Content of COMPOUND” value ([1]; 20 mM B(OH)3, pH 9.0, 75° C., 24 h) was 94.61 Area %, the “Content of COMPOUND” value ([1]; 20 mM B(OH)3, pH 9.0, 75° C., 48 h) was 90.72 Area % and the “Content of COMPOUND” value ([1]; 20 mM B(OH)3, pH 9.0, 75° C., 120 h) was 74.84 Area %. The “Content of COMPOUND” value ([1]; 20 mM B(OH)3, pH 9.0, 75° C., 168 h) was 62.18 Area %, the “Content of COMPOUND” value ([1]; 60 mM B(OH)3, pH 9.0, 75° C., 0 h) was 100.00 Area % and the “Content of COMPOUND” value ([1]; 60 mM B(OH)3, pH 9.0, 75° C., 24 h) was 96.60 Area %. For the same compound, the “Content of COMPOUND” value ([1]; 60 mM B(OH)3, pH 9.0, 75° C., 48 h) was 90.21 Area %, the “Content of COMPOUND” value ([1]; 60 mM B(OH)3, pH 9.0, 75° C., 120 h) was 78.47 Area % and the “Content of COMPOUND” value ([1]; 60 mM B(OH)3, pH 9.0, 75° C., 168 h) was 68.96 Area %. The “Content of COMPOUND” value ([1]; 100 mM B(OH)3, pH 9.0, 75° C., 0 h) was 100.00 Area %, the “Content of COMPOUND” value ([1]; 100 mM B(OH)3, pH 9.0, 75° C., 24 h) was 97.89 Area % and the “Content of COMPOUND” value ([1]; 100 mM B(OH)3, pH 9.0, 75° C., 48 h) was 93.78 Area %. For the same compound, the “Content of COMPOUND” value ([1]; 100 mM B(OH)3, pH 9.0, 75° C., 120 h) was 77.85 Area %, the “Content of COMPOUND” value ([1]; 100 mM B(OH)3, pH 9.0, 75° C., 168 h) was 71.33 Area % and the “Amount of COMPOUND in the test samples” value ([2]; 5° C., 1 month) was 16.9 mg. For the same compound, the “Amount of COMPOUND in the test samples” value ([2]; 5° C., 3 months) was 16.8 mg, the “Amount of COMPOUND in the test samples” value ([2]; 5° C., 6 months) was 16.6 mg and the “Amount of COMPOUND in the test samples” value ([2]; 5° C., initial) was 16.9 mg. The “Amount of COMPOUND in the test samples” value ([2]; 25° C./60% RH, 1 month) was 16.8 mg, the “Amount of COMPOUND in the test samples” value ([2]; 25° C./60% RH, 3 months) was 16.4 mg and the “Amount of COMPOUND in the test samples” value ([2]; 25° C./60% RH, 6 months) was 16.2 mg. The “Amount of COMPOUND in the test samples” value ([2]; 25° C./60% RH, 12 months) was 15.9 mg, the “Amount of COMPOUND in the test samples” value ([2]; 25° C./60% RH, initial) was 16.9 mg and the “Amount of COMPOUND in the test samples” value ([2]; 30° C./75% RH, 1 month) was 16.7 mg. The “Amount of COMPOUND in the test samples” value ([2]; 30° C./75% RH, 3 months) was 16.2 mg, the “Amount of COMPOUND in the test samples” value ([2]; 30° C./75% RH, 6 months) was 15.9 mg and the “Amount of COMPOUND in the test samples” value ([2]; 30° C./75% RH, 12 months) was 15.2 mg. The “Amount of COMPOUND in the test samples” value ([2]; 30° C./75% RH, initial) was 16.9 mg, the “Amount of COMPOUND in the test samples” value ([2]; 40° C./75% RH, 1 month) was 16.2 mg and the “Amount of COMPOUND in the test samples” value ([2]; 40° C./75% RH, 3 months) was 15.1 mg. The “Amount of COMPOUND in the test samples” value ([2]; 40° C./75% RH, 6 months) was 13.3 mg, the “Amount of COMPOUND in the test samples” value ([2]; 40° C./75% RH, initial) was 16.9 mg and the “Content of COMPOUND” value ([3]; 32 mg/mL in water, pH 7 (NaOH), 60° C. for 1 week) was 33.5%. The “Content of COMPOUND” value ([3]; 32 mg/mL in water, pH 7 (NaOH), t=0) was 98.6%, the “Content of COMPOUND” value ([3]; no buffer, pH 7.0, t = 0) was 98.55 Area % and the “Content of COMPOUND” value ([3]; no buffer, pH 7.0, t = 1 week at 60° C.) was 33.5 Area %. The “Content of COMPOUND” value ([3]; no buffer, pH 8.0, t = 0) was 98.65 Area %, the “Content of COMPOUND” value ([3]; no buffer, pH 8.0, t = 1 week at 60° C.) was 74.7 Area % and the “Content of COMPOUND” value ([3]; no buffer, pH 9.0, t = 0) was 98.60 Area %. For the same compound, the “Content of COMPOUND” value ([3]; no buffer, pH 9.0, t = 1 week at 60° C.) was 88.7 Area %, the blood loss [4] was “significantly less blood loss than ticagrelor” and the “pH value after storage” value [5] was 8.5. The antiplatelet response ([6]; single-dose subcutaneous) was “profound, rapid, and dose-related antiplatelet response”, the “safety of single-dose subcutaneous administration” value [6] was “safe” and the “inhibition of platelet aggregation” value [7] was “more than 85%”.
